Experimental data as given in ChEMBL document CHEMBL4342426, “Structure-activity relationship of 4-azaindole-2-piperidine derivatives as agents against Trypanosoma cruzi” (Bioorg Med Chem Lett, 2020).

Tests used:
Macrophage = assay: cells; details: Mus musculus, 72 h
Description: (§1) Cytotoxicity against mouse peritoneal Macrophage cells assessed as reduction in cell viability incubated for 3 days by fluorimetry

in vitro [1] = details: human, MRC5 SV2 cells
Description: Selectivity index, ratio of IC50 for human MRC5 SV2 cells to IC50 for Trypanosoma brucei rhodesiense STIB900 trypomastigotes

in vitro [2] = details: mouse, peritoneal macrophages
Description: as §1

in vitro [3] = details: human, MRC5 SV2 cells; remark: listed apart in the source
Description: Selectivity index, ratio of IC50 for human MRC5 SV2 cells to IC50 for Trypanosoma cruzi Tulahuen CL2 amastigotes infected in human MRC5 SV2 cells

in vitro [4] = details: human, MRC5 SV2 cells; remark: listed apart in the source
Description: (§2) Cytotoxicity against human MRC5 SV2 cells assessed as reduction in cell viability incubated for 3 days by fluorimetry

Trypanosoma cruzi = assay: microbe, parasite or virus in culture; details: Tulahuen CL2, MRC-5 SV2, 168 h
Description: Antitrypanosomal activity against Trypanosoma cruzi Tulahuen CL2 amastigotes infected in human MRC5 SV2 cells incubated for 7 days by chlorophenol red beta-D-galactopyranoside substrate based spectrophotometric assay

[5] = tested on: Trypanosoma brucei rhodesiense; assay: microbe, parasite or virus in culture; details: STIB900, 72 h
Description: Antiprotozoal activity against Trypanosoma brucei rhodesiense STIB900 trypomastigotes incubated for 72 hrs by resazurin dye based fluorimetric analysis

Leishmania infantum = assay: microbe, parasite or virus in culture; details: for IC50: MHOM/MA(BE)/67/ITMAP263, 120 h; for IC90: MHOM/MA(BE)/67/ITMAP263, in Mus musculus, 120 h
Description: Antileishmanial activity against amastigote stage of Leishmania infantum MHOM/MA(BE)/67/ITMAP263 infected in mouse peritoneal macrophage assessed as parasite growth inhibition incubated for 5 days by Giemsa staining based assay

cells = details: Homo sapiens, MRC-5 SV2, 72 h
Description: as §2

Trypanosoma brucei = assay: microbe, parasite or virus in culture; details: Squib 427, 72 h
Description: Antitrypanosomal activity against Trypanosoma brucei Squib 427 assessed as reduction in parasite growth incubated for 72 hrs by resazurin dye based fluorimetric analysis

in vitro [6] = details: human, liver microsomes
Description: Metabolic stability in human liver microsomes assessed as intrinsic clearance at 0.5 uM incubated for 30 mins by LC-MS/MS analysis

in vitro [7] = details: mouse, liver microsomes
Description: Metabolic stability in mouse liver microsomes assessed as fraction unbound at 0.5 uM incubated for 30 mins by LC-MS/MS analysis

in vitro [8] = details: PAMPA
Description: Effective permeability of compound by PAMPA assay

physchem = details: buffer, pH 7.4
Description: Lipophilicity, logD of compound at pH 7.4 by HPLC analysis

in vitro [9] = details: mouse, liver microsomes; remark: listed apart in the source
Description: Metabolic stability in mouse liver microsomes assessed as intrinsic clearance at 0.5 uM incubated for 30 mins by LC-MS/MS analysis

Row | Compound | IC50 (Macrophage) [µM] | IC90 at 72 h (in vitro [2]) [µM] | selectivity ratio (in vitro [3]) | IC90 at 72 h (in vitro [4]) [µM] | IC50 (Trypanosoma cruzi) [µM] | IC90 (Trypanosoma cruzi) [µM] | IC50 [5] [µM] | IC90 [5] [µM] | IC50 (Leishmania infantum) [µM] | IC90 (Leishmania infantum) [µM] | IC50 (cells) [µM] | IC50 (Trypanosoma brucei) [µM] | IC90 (Trypanosoma brucei) [µM] | CLint scaled at 0.5 h, 0.5 µM (in vitro [6]) [mL/min/kg] | microsomal CLint at 0.5 h, 0.5 µM (in vitro [6]) [µL/min/mg] | fraction unbound at 0.5 h, 0.5 µM (in vitro [7]) | Papp (in vitro [8]) [×10⁻⁶ cm/s] | logD (physchem) | CLint scaled at 0.5 h, 0.5 µM (in vitro [9]) [mL/min/kg] | microsomal CLint at 0.5 h, 0.5 µM (in vitro [9]) [µL/min/mg] | also measured
1 | CC(C)c1cc(C(=O)N2CCCC(O)(c3cc4ncccc4n3S(=O)(=O)c3ccccc3)C2)on1 (configuration not stated) | 64 | 64 | 1.26 | 64 | 51.3 | 64 | 35.4 | 64 | 64 | 64 | 64 | 51.1 | 64 | – | – | – | – | – | – | – | selectivity ratio (in vitro [1]): 1.8
2 | O=C(c1cc(C(F)(F)F)no1)N1CCC(c2cc3ncccc3[nH]2)C1 (configuration not stated) | 64 | 64 | 7.25 | 64 | 8.3 | 64 | 64 | 64 | 64 | 64 | 64 | 64 | 64 | 95.8 | 58.2 | 0.656 | 2.86 | 3.12 | 5410 | 1110 | –
3 | O=C(c1cc(C2CC2)no1)N1CCOC(c2cc3ncccc3[nH]2)C1 (configuration not stated) | 64 | 64 | 1.85 | 64 | 34.6 | 63.5 | 64 | 64 | 64 | 64 | 64 | 64 | 64 | < 27.8 | < 23 | 0.896 | 3.18 | 2.4 | 279 | 78.3 | –
4 | CCN(C(=O)CCc1nc2ncccc2[nH]1)c1ccccc1 | 64 | 64 | 1.3 | 64 | 49.1 | 64 | 64 | 64 | 64 | 64 | 64 | 64 | 64 | 49.3 | 35.1 | 0.767 | 9.64 | 2.23 | 426 | 102 | –
5 | CN(CCc1cc2ncccc2[nH]1)C(=O)c1ccccc1 | 64 | 64 | 1.75 | 64 | 36.2 | 64 | 64 | 64 | 64 | 64 | 64 | 64 | 64 | < 30.2 | < 23 | 0.83 | 2.85 | 1.88 | 1470 | 382 | –
6 | O=C(c1ccccc1)N1CCC(c2cc3ncccc3[nH]2)CC1 | 64 | 64 | 2.86 | 64 | 22.4 | 56.1 | 64 | 64 | 64 | 64 | 64 | 64 | 64 | < 33.3 | < 23 | 0.738 | 0.94 | 2.68 | 4520 | 1040 | –
7 | CC(C)(O)c1cc(C(=O)N2CCCC(c3cc4ncccc4[nH]3)C2)on1 (configuration not stated) | 64 | 64 | 1.9 | 64 | 33.6 | 64 | 64 | 64 | 64 | 64 | 64 | 64 | 64 | < 37.8 | < 23 | 0.661 to 0.839 | 0.45 | 2.3 | < 88 | < 23 | –
8 | CCN(CCc1nc2ncc(Cl)cc2[nH]1)C(=O)c1ccc(F)cc1 | 64 | 64 | – | 64 | 64 | 64 | 30.3 | 57.6 | 64 | 64 | 64 | 64 | 64 | < 31.7 | < 23 | – | 11.4 | 2.79 | 439 | 108 | selectivity ratio (in vitro [1]): 2.1
9 | COc1cc(C(=O)N2CCCC(c3cc4ncccc4[nH]3)C2)on1 (configuration not stated) | 64 | 64 | 7.9 | 64 | 8.1 | 15.2 | 64 | 64 | 64 | 64 | 64 | 64 | 64 | 57.8 | 36.9 | 0.688 | 6.36 | 2.44 | 601 | 129 | –
10 | COc1cccc2[nH]c(C(=O)N3CCCC(c4cc5ncccc5[nH]4)C3)cc12 (configuration not stated) | 32 | 32 | 29.4 | 32 | 1.09 | 5.34 | 5.88 | 23.4 | 24.7 | 32 | 32 | 32 | 32 | – | – | – | – | – | – | – | selectivity ratio (in vitro [1]): 5.44
11 | O=C(c1cc(C(F)(F)F)no1)N1CCOC(c2cc3ncccc3[nH]2)C1 (configuration not stated) | 64 | 64 | 1.8 | 64 | 35.7 | 64 | 64 | 64 | 64 | 64 | 64 | 64 | 64 | 118 | 89.8 | 0.825 | 4.3 | 2.89 | 529 | 137 | –
